Measurements taken from PMC5791972 (PLoS ONE, 2018).
Values joined by “and” are separate entries in the source; they are usually repeats but may differ in a detail not shown here. Equal values may be shown once. No end group written: not given here.

Key:
tyrosine hydroxylase = biological target: T1, tyrosine hydroxylase (Rattus norvegicus, UniProt P04177); assay: enzyme assay; type: biochemical
T1 construct: rat striatum; from tissue; host or cells: rat striatum

GABA transaminase = biological target: T2, GABA transaminase (Rattus norvegicus, UniProt P50554); assay: enzyme assay; type: biochemical
T2 construct: rat brain; from tissue; host or cells: rat brain

A3 (h) = biological target: T3, A3 (h) (Homo sapiens, UniProt P0DMS8); type: binding
T3 construct: host or cells: HEK-293 cells
T3 sequence (P0DMS8 1-318): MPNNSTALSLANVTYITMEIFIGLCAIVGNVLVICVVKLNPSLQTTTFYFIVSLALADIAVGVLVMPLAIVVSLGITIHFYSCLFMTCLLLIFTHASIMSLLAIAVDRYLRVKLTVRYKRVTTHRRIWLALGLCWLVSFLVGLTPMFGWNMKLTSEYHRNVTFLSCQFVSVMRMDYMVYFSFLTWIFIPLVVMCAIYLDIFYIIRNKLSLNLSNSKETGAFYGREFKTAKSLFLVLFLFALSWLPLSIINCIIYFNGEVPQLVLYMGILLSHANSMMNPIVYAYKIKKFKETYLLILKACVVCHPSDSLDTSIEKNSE

BLT1 (LTB4) (h) = biological target: T4, BLT1 (LTB4) (h) (Homo sapiens, UniProt Q15722); type: binding
T4 construct: host or cells: CHO cells

β1 (h) = biological target: T5, β1 (h) (Homo sapiens, UniProt P08588); type: binding
T5 construct: host or cells: HEK-293 cells

H2 (h) = biological target: T6, H2 (h) (Homo sapiens, UniProt P25021); type: binding
T6 construct: host or cells: CHO cells

α2C (h) = biological target: T7, α2C (h) (Homo sapiens, UniProt P18825); type: binding
T7 construct: host or cells: CHO cells
T7 sequence (P18825 1-462): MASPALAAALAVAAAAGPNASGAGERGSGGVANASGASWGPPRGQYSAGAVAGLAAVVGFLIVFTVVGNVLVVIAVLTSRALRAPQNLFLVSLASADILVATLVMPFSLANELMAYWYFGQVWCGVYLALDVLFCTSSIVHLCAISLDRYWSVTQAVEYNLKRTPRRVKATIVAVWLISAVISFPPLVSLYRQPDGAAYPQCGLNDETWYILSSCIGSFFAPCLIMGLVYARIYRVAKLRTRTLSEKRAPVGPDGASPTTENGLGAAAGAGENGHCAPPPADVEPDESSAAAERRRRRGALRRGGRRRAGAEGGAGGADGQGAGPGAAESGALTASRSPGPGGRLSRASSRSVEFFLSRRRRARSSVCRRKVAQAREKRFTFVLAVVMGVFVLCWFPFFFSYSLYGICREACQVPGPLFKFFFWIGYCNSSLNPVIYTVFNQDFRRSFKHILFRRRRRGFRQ

MT3 (ML2) = biological target: T8, MT3 (ML2) (Mesocricetus auratus, UniProt A0ABM2YAB8); type: binding, hamster
T8 construct: tissue Cerep; host or cells: hamster brain
T8 sequence (A0ABM2YAB8 1-231): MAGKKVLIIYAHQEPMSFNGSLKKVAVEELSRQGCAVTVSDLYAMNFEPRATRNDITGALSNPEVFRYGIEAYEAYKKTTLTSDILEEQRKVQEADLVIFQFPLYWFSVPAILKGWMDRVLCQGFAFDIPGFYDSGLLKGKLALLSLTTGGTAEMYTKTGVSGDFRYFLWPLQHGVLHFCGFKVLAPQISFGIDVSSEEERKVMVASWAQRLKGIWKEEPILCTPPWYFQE

MT1 (ML1A) (h) = biological target: T9, MT1 (ML1A) (h) (Homo sapiens, UniProt P48039); type: binding
T9 construct: host or cells: CHO cells

AR (h) = biological target: T10, AR (h) (Homo sapiens, UniProt P10275, T878A); type: binding
T10 construct: AR (h) LNCaP cells [3H]methyltrienolone; host or cells: LNCaP cells (cytosol)
T10 sequence (P10275 1-920 T878A): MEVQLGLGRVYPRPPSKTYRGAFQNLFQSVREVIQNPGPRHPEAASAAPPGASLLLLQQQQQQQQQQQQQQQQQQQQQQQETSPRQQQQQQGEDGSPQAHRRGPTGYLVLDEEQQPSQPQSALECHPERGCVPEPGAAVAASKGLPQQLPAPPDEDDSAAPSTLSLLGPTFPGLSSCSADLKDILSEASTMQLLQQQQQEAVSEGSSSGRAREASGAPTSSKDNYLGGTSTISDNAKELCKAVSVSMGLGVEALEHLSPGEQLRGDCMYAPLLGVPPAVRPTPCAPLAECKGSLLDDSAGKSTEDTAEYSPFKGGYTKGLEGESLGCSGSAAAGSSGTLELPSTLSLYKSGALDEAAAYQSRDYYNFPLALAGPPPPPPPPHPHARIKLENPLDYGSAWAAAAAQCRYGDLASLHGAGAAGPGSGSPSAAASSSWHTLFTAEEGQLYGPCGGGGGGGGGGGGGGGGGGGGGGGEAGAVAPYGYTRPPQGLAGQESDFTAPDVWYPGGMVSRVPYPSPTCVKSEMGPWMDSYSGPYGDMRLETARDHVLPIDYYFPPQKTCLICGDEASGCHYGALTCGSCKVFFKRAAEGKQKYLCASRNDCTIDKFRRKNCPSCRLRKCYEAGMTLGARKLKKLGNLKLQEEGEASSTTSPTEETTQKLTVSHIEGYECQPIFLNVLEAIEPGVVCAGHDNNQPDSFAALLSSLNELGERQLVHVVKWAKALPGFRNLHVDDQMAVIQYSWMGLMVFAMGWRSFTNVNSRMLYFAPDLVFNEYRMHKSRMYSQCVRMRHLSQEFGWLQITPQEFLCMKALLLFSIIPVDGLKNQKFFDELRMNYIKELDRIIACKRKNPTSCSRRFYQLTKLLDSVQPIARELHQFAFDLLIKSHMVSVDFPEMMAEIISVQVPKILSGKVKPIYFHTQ

α2A (h) = biological target: T11, α2A (h) (Homo sapiens, UniProt P08913); type: binding
T11 construct: host or cells: CHO cells
T11 sequence (P08913 1-465): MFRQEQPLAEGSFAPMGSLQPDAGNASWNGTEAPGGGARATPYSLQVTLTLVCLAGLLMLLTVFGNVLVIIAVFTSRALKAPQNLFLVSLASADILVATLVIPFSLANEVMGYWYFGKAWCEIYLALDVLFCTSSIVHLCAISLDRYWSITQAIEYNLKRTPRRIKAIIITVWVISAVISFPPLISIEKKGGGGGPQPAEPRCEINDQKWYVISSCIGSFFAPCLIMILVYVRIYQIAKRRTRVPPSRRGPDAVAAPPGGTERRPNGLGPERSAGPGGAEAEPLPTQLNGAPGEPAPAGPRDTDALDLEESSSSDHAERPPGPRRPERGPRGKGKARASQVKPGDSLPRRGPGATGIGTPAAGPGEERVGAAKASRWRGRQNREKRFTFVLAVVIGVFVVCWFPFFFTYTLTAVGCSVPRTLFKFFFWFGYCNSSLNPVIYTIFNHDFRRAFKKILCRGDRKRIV

PDE6 (non-selective) = biological target: T12, PDE6 (non-selective) (Bos taurus, UniProt P11541+P23439); assay: enzyme assay; type: biochemical, bovine
T12 construct: PDE6 bovine [3H]cGMP; tissue Cerep (contract assay); host or cells: bovine retina
T12 sequence (P11541 2-856 limits assumed): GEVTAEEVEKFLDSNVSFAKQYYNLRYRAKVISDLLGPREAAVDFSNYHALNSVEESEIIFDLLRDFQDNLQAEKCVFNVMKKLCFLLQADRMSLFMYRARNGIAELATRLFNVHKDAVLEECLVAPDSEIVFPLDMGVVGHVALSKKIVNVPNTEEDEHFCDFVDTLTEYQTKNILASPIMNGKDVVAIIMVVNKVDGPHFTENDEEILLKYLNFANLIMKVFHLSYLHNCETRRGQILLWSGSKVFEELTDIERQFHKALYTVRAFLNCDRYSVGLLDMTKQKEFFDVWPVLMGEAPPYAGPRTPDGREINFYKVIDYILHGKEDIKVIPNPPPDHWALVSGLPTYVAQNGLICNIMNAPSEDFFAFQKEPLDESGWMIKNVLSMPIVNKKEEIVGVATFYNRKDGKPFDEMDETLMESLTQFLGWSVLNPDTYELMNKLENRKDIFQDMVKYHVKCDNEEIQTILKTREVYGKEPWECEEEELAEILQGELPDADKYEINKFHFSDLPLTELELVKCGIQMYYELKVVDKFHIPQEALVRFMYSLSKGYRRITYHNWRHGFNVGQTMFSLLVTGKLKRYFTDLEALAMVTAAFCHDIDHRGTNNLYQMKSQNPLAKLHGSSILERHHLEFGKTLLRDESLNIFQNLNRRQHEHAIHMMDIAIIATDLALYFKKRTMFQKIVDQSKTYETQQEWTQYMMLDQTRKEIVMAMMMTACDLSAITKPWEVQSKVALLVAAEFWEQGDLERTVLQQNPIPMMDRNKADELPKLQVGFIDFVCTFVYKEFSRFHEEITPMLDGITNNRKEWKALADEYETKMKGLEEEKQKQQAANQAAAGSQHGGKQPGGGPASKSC
T12 sequence (P23439 2-850 limits assumed): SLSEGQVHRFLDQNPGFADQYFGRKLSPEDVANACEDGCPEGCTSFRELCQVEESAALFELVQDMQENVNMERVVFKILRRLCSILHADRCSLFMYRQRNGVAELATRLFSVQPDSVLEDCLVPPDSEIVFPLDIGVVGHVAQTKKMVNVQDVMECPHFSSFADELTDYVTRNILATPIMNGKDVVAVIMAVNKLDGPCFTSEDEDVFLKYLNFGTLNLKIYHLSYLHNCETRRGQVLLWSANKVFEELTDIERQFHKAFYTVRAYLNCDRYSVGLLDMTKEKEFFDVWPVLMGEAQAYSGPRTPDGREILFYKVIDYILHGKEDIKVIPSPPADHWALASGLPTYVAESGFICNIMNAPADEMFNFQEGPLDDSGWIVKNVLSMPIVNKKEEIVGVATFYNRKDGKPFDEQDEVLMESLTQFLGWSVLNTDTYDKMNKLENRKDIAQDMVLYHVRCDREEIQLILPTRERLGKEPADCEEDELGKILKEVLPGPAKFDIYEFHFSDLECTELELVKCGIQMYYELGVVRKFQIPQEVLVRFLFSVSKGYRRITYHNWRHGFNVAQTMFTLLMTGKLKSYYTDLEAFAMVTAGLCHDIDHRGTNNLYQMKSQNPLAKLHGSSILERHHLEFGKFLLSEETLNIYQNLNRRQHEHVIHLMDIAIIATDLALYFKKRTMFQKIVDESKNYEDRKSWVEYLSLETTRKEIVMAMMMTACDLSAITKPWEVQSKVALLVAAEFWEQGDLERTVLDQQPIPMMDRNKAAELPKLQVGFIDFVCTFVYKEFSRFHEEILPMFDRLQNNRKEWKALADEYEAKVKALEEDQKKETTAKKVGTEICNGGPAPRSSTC

CaMK2α (h) = CaMK2α (h) (Homo sapiens, UniProt Q9UQM7); assay: enzyme assay; type: biochemical
[1] = biological target: T13, phosphatase 1B (h) (PTP1B) (Homo sapiens, UniProt P18031); assay: enzyme assay; type: biochemical
T13 construct: host or cells: E. coli
T13 sequence (P18031 1-435): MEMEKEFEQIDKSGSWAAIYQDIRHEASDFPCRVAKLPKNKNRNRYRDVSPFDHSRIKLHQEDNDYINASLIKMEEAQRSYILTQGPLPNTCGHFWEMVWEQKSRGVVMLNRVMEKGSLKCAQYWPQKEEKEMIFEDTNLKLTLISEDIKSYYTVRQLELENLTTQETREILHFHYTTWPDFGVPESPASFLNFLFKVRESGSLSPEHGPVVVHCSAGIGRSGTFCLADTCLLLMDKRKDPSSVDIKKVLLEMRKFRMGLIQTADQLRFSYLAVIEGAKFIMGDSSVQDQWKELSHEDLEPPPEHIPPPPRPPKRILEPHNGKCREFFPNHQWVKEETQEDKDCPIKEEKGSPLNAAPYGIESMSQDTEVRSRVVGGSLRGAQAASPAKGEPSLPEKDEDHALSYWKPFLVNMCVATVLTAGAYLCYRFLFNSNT

T1 sequence (P04177 whole entry): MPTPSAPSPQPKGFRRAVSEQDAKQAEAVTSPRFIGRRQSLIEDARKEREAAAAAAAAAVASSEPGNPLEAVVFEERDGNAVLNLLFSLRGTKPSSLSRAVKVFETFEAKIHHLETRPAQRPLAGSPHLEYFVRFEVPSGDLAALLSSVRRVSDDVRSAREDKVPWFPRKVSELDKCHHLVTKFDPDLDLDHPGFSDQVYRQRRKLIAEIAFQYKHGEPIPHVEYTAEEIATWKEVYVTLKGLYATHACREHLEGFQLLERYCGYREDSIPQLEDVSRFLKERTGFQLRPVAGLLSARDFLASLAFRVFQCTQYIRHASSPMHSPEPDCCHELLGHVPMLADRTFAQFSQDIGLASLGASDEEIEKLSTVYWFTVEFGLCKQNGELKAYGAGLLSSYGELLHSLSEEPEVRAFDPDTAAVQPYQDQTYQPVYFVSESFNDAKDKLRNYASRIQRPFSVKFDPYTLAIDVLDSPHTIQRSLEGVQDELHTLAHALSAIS
T2 sequence (P50554 28-500): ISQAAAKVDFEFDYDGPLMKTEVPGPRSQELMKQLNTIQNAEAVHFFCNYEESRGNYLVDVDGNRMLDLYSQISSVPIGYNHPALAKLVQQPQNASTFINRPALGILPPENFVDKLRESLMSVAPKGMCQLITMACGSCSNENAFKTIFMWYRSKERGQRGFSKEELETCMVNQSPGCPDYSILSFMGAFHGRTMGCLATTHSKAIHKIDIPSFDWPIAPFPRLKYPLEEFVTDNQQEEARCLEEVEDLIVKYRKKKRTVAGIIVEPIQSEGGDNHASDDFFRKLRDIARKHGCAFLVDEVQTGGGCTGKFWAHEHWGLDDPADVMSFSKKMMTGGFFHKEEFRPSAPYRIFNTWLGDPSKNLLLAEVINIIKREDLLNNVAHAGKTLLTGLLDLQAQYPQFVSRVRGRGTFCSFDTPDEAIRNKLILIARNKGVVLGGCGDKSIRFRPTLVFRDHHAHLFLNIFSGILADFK
T6 sequence (P25021 whole entry): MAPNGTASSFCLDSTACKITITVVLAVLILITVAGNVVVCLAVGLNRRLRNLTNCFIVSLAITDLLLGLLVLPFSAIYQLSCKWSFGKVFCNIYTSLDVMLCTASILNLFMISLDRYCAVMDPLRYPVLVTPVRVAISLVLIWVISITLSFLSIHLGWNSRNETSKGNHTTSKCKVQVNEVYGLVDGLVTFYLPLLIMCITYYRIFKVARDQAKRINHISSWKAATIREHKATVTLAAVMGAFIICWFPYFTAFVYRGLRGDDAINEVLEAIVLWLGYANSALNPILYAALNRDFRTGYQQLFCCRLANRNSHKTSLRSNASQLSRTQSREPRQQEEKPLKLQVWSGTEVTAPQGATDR
T9 sequence (P48039 whole entry): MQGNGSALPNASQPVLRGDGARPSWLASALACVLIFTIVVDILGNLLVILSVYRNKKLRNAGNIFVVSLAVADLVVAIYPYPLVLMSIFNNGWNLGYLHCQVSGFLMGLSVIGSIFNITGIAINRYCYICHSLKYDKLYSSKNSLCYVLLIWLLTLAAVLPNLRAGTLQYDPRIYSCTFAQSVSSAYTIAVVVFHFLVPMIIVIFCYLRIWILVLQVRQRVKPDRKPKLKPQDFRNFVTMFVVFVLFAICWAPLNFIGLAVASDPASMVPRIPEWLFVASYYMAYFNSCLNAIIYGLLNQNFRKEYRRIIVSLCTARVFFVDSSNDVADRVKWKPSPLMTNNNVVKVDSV
T5 sequence (P08588 whole entry): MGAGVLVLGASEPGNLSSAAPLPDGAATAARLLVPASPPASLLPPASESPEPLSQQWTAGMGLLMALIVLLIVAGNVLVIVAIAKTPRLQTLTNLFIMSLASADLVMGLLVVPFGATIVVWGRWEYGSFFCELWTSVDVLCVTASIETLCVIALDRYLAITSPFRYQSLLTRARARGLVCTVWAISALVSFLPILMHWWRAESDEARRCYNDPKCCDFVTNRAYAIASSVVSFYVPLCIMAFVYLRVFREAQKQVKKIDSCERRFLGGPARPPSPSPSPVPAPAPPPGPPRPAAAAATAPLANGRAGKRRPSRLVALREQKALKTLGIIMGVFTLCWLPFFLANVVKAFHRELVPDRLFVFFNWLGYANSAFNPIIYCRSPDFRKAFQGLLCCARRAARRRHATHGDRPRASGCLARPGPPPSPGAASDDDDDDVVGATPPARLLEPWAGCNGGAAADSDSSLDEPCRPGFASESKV
T4 sequence (Q15722 whole entry): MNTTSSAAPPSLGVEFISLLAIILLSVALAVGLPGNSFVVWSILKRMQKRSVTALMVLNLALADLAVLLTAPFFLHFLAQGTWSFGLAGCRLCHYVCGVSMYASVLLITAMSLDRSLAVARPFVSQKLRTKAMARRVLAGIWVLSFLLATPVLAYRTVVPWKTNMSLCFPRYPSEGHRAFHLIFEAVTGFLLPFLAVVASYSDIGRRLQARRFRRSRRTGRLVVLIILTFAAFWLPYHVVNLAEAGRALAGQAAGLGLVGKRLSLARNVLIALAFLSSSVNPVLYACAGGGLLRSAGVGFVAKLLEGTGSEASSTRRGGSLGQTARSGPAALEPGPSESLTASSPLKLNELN

Compound: N[C@@H](Cc1ccc(O)c(I)c1)C(=O)O [3-iodo L-tyrosine, reference compound]
- IC50 (tyrosine hydroxylase): 610 nM
- nH (tyrosine hydroxylase): 1.0

Compound: NOCC(=O)O [AoAA, reference compound]
- IC50 (GABA transaminase): 130 nM
- nH (GABA transaminase): 1.7

Compound: CNC(=O)[C@H]1O[C@@H](n2cnc3c(NCc4cccc(I)c4)ncnc32)[C@H](O)[C@@H]1O [IB-MECA, reference compound]
- nH (A3 (h)): 0.8

Compound: CCCCC/C=C\C[C@@H](O)/C=C/C=C/C=C\[C@@H](O)CCCC(=O)O [LTB4, reference compound]
- nH (BLT1 (LTB4) (h)): 0.8

Compound: CC(C)NCC(O)COc1ccc(CC(N)=O)cc1 (centres unmarked) [atenolol, reference compound]
- nH (β1 (h)): 1.0

Compound: CN/C(=N/CCSCc1nc[nH]c1C)NC#N [cimetidine, reference compound]
- nH (H2 (h)): 0.9

Compound: CNC[C@H](O)c1ccc(O)c(O)c1 [epinephrine, reference compound]
- nH (α2C (h)): 1.1

Compound: COc1ccc2[nH]cc(CCNC(C)=O)c2c1 [melatonin, reference compound]
- IC50 (MT3 (ML2)): 38 nM and 260 nM
- Ki (MT3 (ML2)): 37 nM and 250 nM
- nH (MT1 (ML1A) (h)): 1.0

Compound: C[C@@H]1CC2=CC(=O)CC[C@@H]2[C@H]2CC[C@@]3(C)[C@@H](CC[C@]3(C)O)[C@@H]21 [mibolerone, reference compound]
- nH (AR (h)): 1.1 and 1.0

Compound: COC(=O)[C@@H]1[C@H]2C[C@H]3c4[nH]c5ccccc5c4CCN3C[C@@H]2CC[C@@H]1O [yohimbine, reference compound]
- nH (α2A (h)): 1.1

Compound: CCCOc1ccccc1-c1nc2nn[nH]c2c(=O)[nH]1 [zaprinast, reference compound]
- IC50 (PDE6 (non-selective)): 170 nM
- nH (PDE6 (non-selective)): 0.7

Compound: KKALRRQEAVDAL [AIP, reference compound]
- IC50 (CaMK2α (h)): 81 nM
- nH (CaMK2α (h)): 1.0

Compound: ammonium molybdate [reference compound]
- IC50 [1]: 540 nM
- nH [1]: 2.9
